# Results from PubChem BioAssay (NCI).
#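 1) Cells in 96-well plates. 2) Compound, 48 h, 5 concentrations. 3) Linear interpolation between surrounding doses. 4) Unreached endpoint = highest concentration. The concentration for 50% growth inhibition is given as GI50. The concentration for full growth arrest is given as TGI.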
# How the values were obtained:
# Assay in all cases: inhibition of tumour cell growth, NCI panel, 48 h
# [1] = test system: SW-620 colon
# [2] = test system: OVCAR-5 ovarian
# [3] = test system: SK-MEL-5 melanoma
# [4] = test system: SK-MEL-28 melanoma
# [5] = test system: MOLT-4 leukemia
# [6] = test system: SK-MEL-2 melanoma
# [7] = test system: TK-10 renal
# [8] = test system: K-562 leukemia
# [9] = test system: OVCAR-4 ovarian
# [10] = test system: HCT-116 colon
# [11] = test system: DMS 273 small cell lung
# [12] = test system: KM12 colon
# [13] = test system: SF-268 CNS
# [14] = test system: NCI-H522 lung
# [15] = test system: HOP-92 NSCLC
# [16] = test system: IGROV1 ovarian
# [17] = test system: LOX IMVI melanoma
# [18] = test system: SR leukemia
# [19] = test system: DMS 114 small cell lung
# [20] = test system: UACC-62 melanoma
# [21] = test system: SNB-19 CNS
# [22] = test system: CCRF-CEM leukemia
# [23] = test system: OVCAR-3 ovarian
# [24] = test system: U251 CNS
# [25] = test system: NCI-H23 lung
# [26] = test system: CAKI-1 renal
# [27] = test system: HCT-15 colon
# [28] = test system: HCC-2998 colon
# [29] = test system: HL-60(TB) leukemia
# [30] = test system: 786-0 renal
# [31] = test system: A498 renal
# [32] = test system: ACHN renal
# [33] = test system: M19-MEL melanoma
# [34] = test system: OVCAR-8 ovarian
# [35] = test system: HT29 colon
# [36] = test system: HOP-62 NSCLC
# [37] = test system: RXF 393 renal
# [38] = test system: SF-539 CNS
# [39] = test system: SNB-75 CNS
# [40] = test system: SN12C renal
# [41] = test system: COLO 205 colon
# [42] = test system: M14 melanoma
# [43] = test system: RPMI-8226 leukemia
# [44] = test system: EKVX NSCLC
# [45] = test system: NCI-H460 lung
# [46] = test system: A549 NSCLC
# [47] = test system: KM20L2 colon
# [48] = test system: DLD-1 colon
# [49] = test system: SK-OV-3 ovarian
# [50] = test system: SNB-78 CNS
# [51] = test system: NCI-H226 lung
# [52] = test system: MALME-3M melanoma
# [53] = test system: LXFL 529 NSCLC
# [54] = test system: UO-31 renal
# [55] = test system: XF 498 CNS
# [56] = test system: SF-295 CNS
# [57] = test system: UACC-257 melanoma
# [58] = test system: HOP-18 NSCLC
compound,measurement,setting,value
Nc1ccc(C(=O)N/C(=C\c2cccc([N+](=O)[O-])c2)c2nc3ccccc3[nH]2)cc1,TGI,[1],> 100 µM
same,TGI,[2],> 100 µM
same,TGI,[3],> 100 µM
same,TGI,[4],> 100 µM
same,TGI,[5],> 100 µM
same,TGI,[6],> 100 µM
same,TGI,[7],> 100 µM
same,TGI,[8],> 100 µM
same,TGI,[9],> 83.3 µM
same,TGI,[10],> 100 µM
same,TGI,[11],> 100 µM
same,TGI,[12],> 100 µM
same,TGI,[13],> 100 µM
same,TGI,[14],98.8 µM
same,TGI,[15],> 66.4 µM
same,TGI,[16],> 100 µM
same,TGI,[17],> 100 µM
same,TGI,[18],> 100 µM
same,TGI,[19],> 100 µM
same,TGI,[20],> 100 µM
same,TGI,[21],> 100 µM
same,TGI,[22],> 100 µM
same,TGI,[23],> 100 µM
same,TGI,[24],> 100 µM
same,TGI,[25],> 100 µM
same,TGI,[26],> 100 µM
same,TGI,[27],> 100 µM
same,TGI,[28],> 100 µM
same,TGI,[29],> 100 µM
same,TGI,[30],> 100 µM
same,TGI,[31],> 100 µM
same,TGI,[32],> 100 µM
same,TGI,[33],> 100 µM
same,TGI,[34],> 100 µM
same,TGI,[35],> 100 µM
same,TGI,[36],67 µM
same,TGI,[37],59.4 µM
same,TGI,[38],> 100 µM
same,TGI,[39],69.4 µM
same,TGI,[40],> 100 µM
same,TGI,[41],> 100 µM
same,TGI,[42],> 100 µM
same,TGI,[43],> 100 µM
same,TGI,[44],> 100 µM
same,TGI,[45],> 100 µM
same,TGI,[46],> 100 µM
same,TGI,[47],> 100 µM
same,TGI,[48],> 100 µM
same,TGI,[49],> 82.7 µM
same,TGI,[50],> 100 µM
same,TGI,[51],> 100 µM
same,TGI,[52],> 100 µM
same,TGI,[53],> 100 µM
same,TGI,[54],63.8 µM
same,TGI,[55],59.8 µM
same,TGI,[56],> 100 µM
CC1(C)CC(/C=C2/OC(=O)c3ccccc32)=C(C(N)=O)C(=O)O1,TGI,[1],> 100 µM
same,TGI,[2],> 100 µM
same,TGI,[3],> 100 µM
same,TGI,[4],> 100 µM
same,TGI,[5],> 100 µM
same,TGI,[6],> 100 µM
same,TGI,[8],> 100 µM
same,TGI,[9],> 100 µM
same,TGI,[10],> 100 µM
same,TGI,[11],> 100 µM
same,TGI,[12],> 100 µM
same,TGI,[13],> 100 µM
same,TGI,[14],> 100 µM
same,TGI,[16],> 100 µM
same,TGI,[17],> 100 µM
same,TGI,[18],> 100 µM
same,TGI,[19],> 100 µM
same,TGI,[20],> 100 µM
same,TGI,[21],> 100 µM
same,TGI,[22],> 100 µM
same,TGI,[23],> 100 µM
same,TGI,[24],> 100 µM
same,TGI,[25],> 100 µM
same,TGI,[26],> 100 µM
same,TGI,[27],> 100 µM
same,TGI,[28],> 100 µM
same,TGI,[30],> 100 µM
same,TGI,[33],> 100 µM
same,TGI,[34],> 100 µM
same,TGI,[35],> 100 µM
same,TGI,[36],> 100 µM
same,TGI,[38],> 100 µM
same,TGI,[39],> 100 µM
same,TGI,[40],> 100 µM
same,TGI,[41],> 100 µM
same,TGI,[42],> 100 µM
same,TGI,[43],> 100 µM
same,TGI,[44],> 100 µM
same,TGI,[45],> 100 µM
same,TGI,[46],> 100 µM
same,TGI,[47],> 100 µM
same,TGI,[48],> 100 µM
same,TGI,[49],> 100 µM
same,TGI,[50],> 100 µM
same,TGI,[51],> 100 µM
same,TGI,[52],> 100 µM
same,TGI,[57],> 100 µM
same,TGI,[53],> 100 µM
same,TGI,[54],> 100 µM
same,TGI,[55],> 100 µM
same,TGI,[56],> 100 µM
COc1cccc(C=O)c1[O-].COc1cccc(C=O)c1[O-].[Cu+2],TGI,[1],36.3 µM
same,TGI,[3],6.27 µM
same,TGI,[4],28.5 µM
same,TGI,[5],18.6 µM
same,TGI,[6],12.8 µM
same,TGI,[8],17.9 µM
same,TGI,[9],6.85 µM
same,TGI,[10],30.1 µM
same,TGI,[11],36.2 µM
same,TGI,[12],30.7 µM
same,TGI,[13],35.3 µM
same,TGI,[14],19.3 µM
same,TGI,[15],28 µM
same,TGI,[17],37.6 µM
same,TGI,[19],1.2 µM
same,TGI,[21],31.2 µM
same,TGI,[22],28.3 µM
same,TGI,[23],21 µM
same,TGI,[24],35.4 µM
same,GI50,[26],2.83 µM
same,TGI,[26],10.3 µM
same,TGI,[27],19.8 µM
same,TGI,[58],26.8 µM
same,TGI,[28],29 µM
same,GI50,[29],21.7 µM
same,TGI,[29],46 µM
same,TGI,[30],31.9 µM
same,TGI,[31],39.4 µM
same,TGI,[32],30.5 µM
same,TGI,[34],44.7 µM
same,TGI,[35],46.8 µM
same,TGI,[36],31.7 µM
same,TGI,[38],41.4 µM
same,TGI,[39],35.4 µM
same,TGI,[40],34 µM
same,TGI,[41],20.8 µM
same,TGI,[42],31.4 µM
same,TGI,[43],41.4 µM
same,TGI,[44],77.7 µM
same,TGI,[45],73.8 µM
same,TGI,[46],55 µM
same,TGI,[47],32.3 µM
same,TGI,[48],23.7 µM
same,TGI,[49],31.8 µM
same,TGI,[51],68.2 µM
same,TGI,[52],20.1 µM
same,TGI,[53],16.5 µM
same,GI50,[55],6.8 µM
same,TGI,[55],19.2 µM
same,TGI,[56],> 100 µM
